# In patent US7718676B2, “2-aminoaryloxazole compounds as tyrosine kinase inhibitors” (AB Science, priority 2003, dated 2010):
row,melting point [°C],Compound
1,203,"Cc1ccc(C(=O)Nc2ccc(C#N)cc2)cc1Nc1ncc(-c2cccnc2)o1 [Compound 058, N-(4-Cyano-phenyl)-4-methyl-3-(5-pyridin-3-yl-oxazol-2-ylamino)-benzamide]"
2,228,"Cc1ccc(NC(=O)c2cccc(N(C)C)c2)cc1Nc1ncc(-c2cccnc2)o1 [Compound 010, 3-Dimethylamino-N-[4-methyl-3-(5-pyridin-3-yl-oxazol-2-ylamino)-phenyl]-benzamide]"
